{"source": "patent US20090253629A1", "about": "(priority 2008, published 2009)", "key": {"[1]": {"tested_on": "penicillin-resistant serotype 9V Streptococcus pneumoniae (1395)", "assay_type": "in vivo, New Zealand white rabbits", "settings": "for reduction in bacterial burden in the cerebrospinal fluid (Δ log CFU), Average / reduction in bacterial burden in the cerebrospinal fluid (Δ log CFU): Ceftriaxon treatment; for reduction in bacterial burden in the cerebrospinal fluid (Δ log CFU), Average: average of rabbits 7-10; for reduction in bacterial burden in the cerebrospinal fluid (Δ log CFU): individual rabbits 7-10", "text": "(§1) An Isolate of a penicillin-resistant serotype 9V Streptococcus pneumoniae (1395), originally isolated from the CSF of a person with meningitis, was used in the meningitis model. This strain was formerly used for evaluating the effectiveness of treatment of meningitis with Moxifloxacin (see Ostergaard et al., 1998, “Evaluation of moxifloxacin, a new 8-methoxyquinolone, for treatment of meningitis caused by a penicillin-resistant pneumococcus in rabbits”, Antimicrob Agents Chemother 42(7): 1706-1712).\nThe virulence of the strain was enhanced by passing the bacteria through a mouse peritonitis model. Bacteria from sampled peritoneal fluid were grown on blood agar plates, recovered and diluted in beef-broth with 10% glycerol added and frozen at −80° C.\nThe bacterial aliquots were thawn and grown on blood-agar plates, suspended in sterile beef-broth to reach an optical density of 3.5 at 540 nm, and subsequently diluted to obtain a final concentration of 1-2×10^6 CFU/ml.\nMale New Zealand white rabbits weighing approx. 2500 g was used for the experiments. The rabbits arrived at the facilities 1-2 weeks prior to the experiment to allow for adaptation. They were kept in single cages covered with hay and offered food and water with no restrictions. Veterinarian expertise was available at the laboratory, and the experimental design was approved by the local animal legislation committee.\nThe rabbit was weighed and anaesthetized with dormicum 0.5 ml/kg (midazolam 5 mg/ml) s.c. and after 10 minutes with hypnorm 0.35 ml/kg (fentanylcitrat+fluanison) i.m.\nThe ears, scalp and neck of the rabbit were shaved and the skin disinfected. An incision measuring approx. 2 cm was made on the forehead of the rabbit and the scalp was exposed by blunt dissection. 4 bore holes were made demarcating a square and 4 screws were screwed up at right angles to the surface (2.5 to 3 turns). An acrylic helmet, embedding a turnbuckle, was moulded from dental casting material directly onto the scalp of the rabbit and the helmet was cooled under running water. The rabbit was put back into its cage with free access to food and water to rest for 8-10 hours until the time of bacterial inoculation or start of pharmacokinetic treatment study on uninfected rabbits. Analgesia with buprenorfin, 0.1 mg/kg, was given.\nThe head of the rabbit was immobilised in a stereotactic frame and a spinal canula was introduced in cisterna magna for the inoculation of 1×10^5 CFU pneumococci. After the bacterial inoculation, the rabbit was put back into its cage with access to food and water for another 8 hours.\nThe rabbit was re-anaesthetized with urethan 3.5 ml/kg ([…] 50%, 1.75 g/kg) s.c. at 7.30 a.m. A venous catheter was applied in the left ear-vein and Mebumal approx. 0.5-1 ml (Pentobarbital 50 mg/ml) i.v. was infused slowly until the rabbit was asleep and deeply anaesthetized. A three-way tap was connected to the venous catheter and syringes containing pentobarbital for supplemental anaesthetics and isotonic NaCl and heparin 1 Ul/ml for flushing were connected to the tap. Rabbits were observed every half hour. When the need for supplemental anaesthesia arose, additional 0.2 ml Mebumal (Pentobarbital 50 mg/ml) was given. During the experiment observations and anaesthetics were recorded in the scheme of the laboratory animal-department and in the book of the Laboratory Animal Inspection.\nAn arterial canula was applied in the artery of the right ear and used for blood-sampling throughout the experiment. A bolt was fastened to the turnbuckle embedded in the acrylic helmet, and the rabbit's head was fixed in a stereotactic frame. The rabbit remained fixed throughout the experiment.\nCisterna magna was punctured with a spinal-canula, fastened to the stereotactic frame. The canula was left in place throughout the experiment and used for CSF-sampling."}, "[2]": {"tested_on": "Streptococcus pneumoniae (1395)", "assay": "Minimum inhibitory concentration (MIC) against Streptococcus pneumoniae (1395)", "assay_type": "cell-based", "settings": "penicillin-resistant serotype 9V, read-out: minimium inhibitory concentration (MIC)", "text": "as §1\nThe synthetic defensin used in the experiment is a polypeptide having the amino acid sequence shown in SEQ ID NO: 1."}, "[3]": {"settings": "time 0 hours (normalized start)"}}, "note": "Several values for one entry are separate records, joined by “and”; a condition that tells them apart may be missing. Equal entries are not always repeated. Where two headings read alike, the source gives them in different places."}
{"smiles": "CO/N=C(\\C(=O)N[C@@H]1C(=O)N2C(C(=O)O)=C(CSc3nc(=O)c(=O)[nH]n3C)CS[C@H]12)c1csc(N)n1", "note": "[Ceftriaxone]", "values": [{"measurement": "reduction in bacterial burden in the cerebrospinal fluid (Δ log CFU), Average", "setting": "[1]; [3]", "result": "0.00 Δ log CFU"}, {"measurement": "reduction in bacterial burden in the cerebrospinal fluid (Δ log CFU)", "setting": "[1]; [3]", "result": "0.00 Δ log CFU"}, {"measurement": "bacterial burden in the cerebrospinal fluid", "setting": "[1]; time 0 hours (start of treatment), Ceftriaxone 125 mg/kg at 0 h", "result": "3,480,000 CFU/ml"}, {"measurement": "reduction in bacterial burden in the cerebrospinal fluid (Δ log CFU), Average", "setting": "[1]; time 3 hours", "result": "−2.12 Δ log CFU"}, {"measurement": "reduction in bacterial burden in the cerebrospinal fluid (Δ log CFU)", "setting": "[1]; time 3 hours", "result": "−2.26 Δ log CFU and −2.11 Δ log CFU and −2.53 Δ log CFU and −1.58 Δ log CFU"}, {"measurement": "bacterial burden in the cerebrospinal fluid", "setting": "[1]; time 3 hours, Ceftriaxone 125 mg/kg at 0 h", "result": "92,500 CFU/ml"}, {"measurement": "reduction in bacterial burden in the cerebrospinal fluid (Δ log CFU), Average", "setting": "[1]; time 5 hours", "result": "−2.98 Δ log CFU"}, {"measurement": "reduction in bacterial burden in the cerebrospinal fluid (Δ log CFU)", "setting": "[1]; time 5 hours", "result": "−3.28 Δ log CFU and −2.77 Δ log CFU and −3.72 Δ log CFU and −2.14 Δ log CFU"}, {"measurement": "bacterial burden in the cerebrospinal fluid", "setting": "[1]; time 5 hours, Ceftriaxone 125 mg/kg at 0 h", "result": "25,000 CFU/ml"}, {"measurement": "reduction in bacterial burden in the cerebrospinal fluid (Δ log CFU), Average", "setting": "[1]; time 10 hours", "result": "−4.18 Δ log CFU"}, {"measurement": "reduction in bacterial burden in the cerebrospinal fluid (Δ log CFU)", "setting": "[1]; time 10 hours", "result": "−5.16 Δ log CFU and −3.57 Δ log CFU and −4.32 Δ log CFU and −3.67 Δ log CFU"}, {"measurement": "bacterial burden in the cerebrospinal fluid", "setting": "[1]; time 10 hours, Ceftriaxone 125 mg/kg at 0 h", "result": 750, "unit": "CFU/ml"}, {"measurement": "bacterial burden in the cerebrospinal fluid", "setting": "[1]; time −10 hours (before treatment), Ceftriaxone group", "result": "240,000 CFU/ml"}, {"measurement": "MIC", "setting": "[2]", "result": 0.5, "unit": "µg/mL"}]}
